Test results published in publication PMC8846325, “A Photoactivable Natural Product with Broad Antiviral Activity against Enveloped Viruses, Including Highly Pathogenic Coronaviruses” (Antimicrobial Agents and Chemotherapy, 2022).

What was measured:
yellow fever virus (YFV) = assay type: cell-based; conditions: 1 and 2.5 μM, light 30 min prior to inoculation
Sindbis virus (SINV) = assay type: cell-based
[1] = MTS cell toxicity assay, Huh-7 cells; assay type: cell-based; conditions: human, Huh-7 cells, 24 h
Experimental: (§1) A total of 6 × 10^4 Huh-7, Vero-E6, and Vero-81 cells were seeded in 96-well plates and incubated for 16 h at 37°C in a 5% CO2 incubator. The cells were then treated with increasing concentrations of the compound of interest. One hour after inoculation, cells were taken out of the incubator to be exposed to the white light of a biosafety cabinet (BSC) for 10 min, after which cells were further incubated in the dark at 37°C and 5% CO2 for 23 h. The BSC’s light source lamp consists of one fluorescent tube of 36 W, 3,350 lumen, white light. An MTS [3-(4,5-dimethylthiazol-2-yl)-5-(3-carboxymethoxyphenyl)-2-(4-sulfophenyl)-2H-tetrazolium]-based viability assay (Cell Titer 96 aqueous nonradioactive cell proliferation assay; Promega) was performed as recommended by the manufacturer. The absorbance of formazan at 490 nm was detected using a plate reader (ELX 808 Bio-Tek Instruments Inc.). Each measure was performed in triplicate, and each experiment was repeated at least 3 times.
(§2) 6×104 Huh-7, Vero-E6 and Vero-81 cells were seeded in 96-well plates and incubated for 16 h at 37 °C 5% CO2 incubator. The cells were then treated with increasing concentrations of the compound of interest. One hour after inoculation, cells were either left in the incubator (dark condition) or taken out to be exposed to the white light of the biosafety cabinet (BSC) for 10 min (light condition), after which cells were further incubated in the dark at 37 °C 5% CO2 for 23 h. BSC’s light source lamp consists of one fluorescent tube of 36W, 3350 lumen white light. An MTS [3-(4,5-dimethylthiazol-2-yl)-5-(3-carboxymethoxyphenyl)-2-(4-sulfophenyl)- 2H-tetrazolium]-based viability assay (Cell Titer 96 Aqueous non-radioactive cell proliferation assay, Promega) was performed as recommended by the manufacturer. The absorbance of formazan at 490 nm was detected using a plate reader (ELX 808 Bio-Tek […]
(§3) Instruments Inc). […]

Huh-7 cells = assay: MTS cell toxicity assay, Huh-7 cells; assay type: cell-based; conditions: Huh-7 cells, 24 h in incubator without light exposure
Experimental: as §1, §2, §3

MERS-CoV [2] = assay type: cell-based; conditions: Mucilair cells, 2.5 μM, 72 h postinoculation
Vero-E6 cells = assay: MTS cell toxicity assay, Vero-E6 cells; assay type: cell-based; conditions: 24 h in incubator without light exposure
Experimental: as §1
(§4) 6×104 Huh-7, Vero-E6 and Vero-81 cells were seeded in 96-well plates and incubated for 16 h at 37 °C 5% CO2 incubator. The cells were then treated with increasing concentrations of the compound of interest. […] The absorbance of formazan at 490 nm was detected using a plate reader (ELX 808 Bio-Tek […]

[3] = MTS cell toxicity assay, Vero-E6 cells; assay type: cell-based; conditions: African green monkey, 24 h, 10 min light exposure after 1 h, read-out: 50% cytotoxic concentration (CC50)
Experimental: as §1, §4

HCoV-229E [4] = assay: Time-of-addition assay, HCoV-229E-Luc; assay type: cell-based
[5] = tested on: Mucilair primary human bronchial epithelial cells; assay: Mucilair toxicity assays (LDH secretion, transepithelial electrical resistance); conditions: 0.25 and 2.5 μM, up to 72 h
Vero-81 cells = assay: MTS cell toxicity assay, Vero-81 cells; assay type: cell-based; conditions: 24 h in incubator without light exposure
Experimental: as §1, §4

[6] = MTS cell toxicity assay, Vero-81 cells; assay type: cell-based; conditions: African green monkey, 24 h, 10 min light exposure after 1 h, read-out: 50% cytotoxic concentration (CC50)
Experimental: as §1, §4

[7] = tested on: pseudotyped viral particles with envelope proteins of VSV, HCV, SARS-CoV-2, and MERS-CoV; assay type: cell-based
HCoV-229E [8] = assay: HCoV-229E infectious titers (TCID50); assay type: cell-based
SARS-CoV-2 [9] = assay type: cell-based
SARS-CoV-2 [10] = assay type: cell-based; remark: listed apart in the source
SARS-CoV-2 spike protein = SARS-CoV-2 spike protein (Severe acute respiratory syndrome coronavirus 2, UniProt P0DTC2); assay type: cell-based
hepatitis C virus = assay type: cell-based, HCV
HCoV-229E [11] = assay: Attachment assay (bound virions by qRT-PCR); assay type: cell-based; conditions: Huh-7-TMPRSS2 cells, 4°C 1 h, 4.1 and 8.2 μM
SARS-CoV-2 [12] = assay: microbe, parasite or virus in culture; assay type: cell-based
coxsackievirus (CVB4) = assay type: cell-based, Coxsackievirus B4
HCoV-229E [13] = assay: Trypsin-induced virus-cell fusion assay; assay type: cell-based; conditions: Huh-7 cells, NH4Cl, 0.5 and 1 μM
MERS-CoV [14] = assay: microbe, parasite or virus in culture; assay type: cell-based
HCoV-229E [15] = assay: HCoV-229E-Luc infection inhibition luciferase assay; assay type: cell-based; conditions: for IC50: Human coronavirus 229E
HCoV-229E [16] = assay: White light exposure kinetics; assay type: cell-based
[17] = Huh-7-TMPRSS2 cells, Pba 2 μM, BSC light

With `C=Cc1c(C)c2cc3nc(c4c5[nH]c(cc6nc(cc1[nH]2)C(C)=C6CC)c(C)c5C(=O)[C@@H]4C(=O)OC)[C@@H](CCC(=O)O)[C@@H]3C` [Pba, pheophorbide a] the “antiviral activity on YFV (enveloped)” value (yellow fever virus (YFV)) was “clear antiviral effect”, the “antiviral activity on SINV (enveloped)” value (Sindbis virus (SINV)) was “clear antiviral effect” and the CC50 at 24 h ([1]; 10 min light exposure after 1 h, read-out: 50% cytotoxic concentration (CC50)) was 4.4 ± 1.2 µM. For the same compound, the CC50 at 24 h ([1]; light exposure, read-out: CC50 (μM) 24 h) was 6.08 µM, the “concentrations at which no toxicity was exhibited” value (Huh-7 cells) was “up to 120 μM” and the “decrease of viral titers, MERS-CoV” value (MERS-CoV [2]) was “more than 1 log10”. For the same compound, the “viral RNA levels of MERS-CoV” value (MERS-CoV [2]) was “significantly decreased”, the “concentrations at which no toxicity was exhibited” value (Vero-E6 cells) was “up to 120 μM” and the CC50 at 24 h [3] was 5800 ± 1900 nM. For the same compound, the “infectivity, compound added more than 2 h after inoculation” value (HCoV-229E [4]) was “normal levels of infectivity”, the “inhibition of infection, compound added before inoculation (pretreatment of the cells)” value (HCoV-229E [4]; [17]) was “no inhibition of infection” and the “inhibition of infection, compound present during inoculation” value (HCoV-229E [4]; [17]) was “strong inhibition of infection”. The “toxicity (LDH secretion and transepithelial electrical resistance)” value [5] was “No toxicity was observed”, the “concentrations at which no toxicity was exhibited” value (Vero-81 cells) was “up to 120 μM” and the CC50 at 24 h [6] was 5500 ± 2000 nM. For the same compound, the pseudoparticle infection [7] was “inhibited pseudoparticle infection regardless of the nature of the viral envelope protein but only under light conditions”, the “selectivity index (SI), HCoV-229E” value (HCoV-229E [8]; CC50 Huh-7 / IC50 infectious titers) was 44 and the IC50 (HCoV-229E [8]; Human coronavirus 229E, Huh-7, 10 min, read-out: IC50, HCoV-229E infectious titers) was 100 nM. For the same compound, the “infectivity, compound added more than 2 h after inoculation” value (SARS-CoV-2 [9]) was “normal levels of infectivity”, the “inhibition of infection, compound added before inoculation (pretreatment of the cells)” value (SARS-CoV-2 [9]) was “no inhibition of infection” and the “inhibition of infection, compound present during inoculation” value (SARS-CoV-2 [9]) was “strong inhibition of infection”. For the same compound, the “decrease of viral titers, SARS-CoV-2” value (SARS-CoV-2 [10]) was “more than 1 log10”, the “viral RNA levels of SARS-CoV-2” value (SARS-CoV-2 [10]) was “significantly decreased” and the “spike-induced cell-cell fusion (syncytium formation)” value (SARS-CoV-2 spike protein) was “cannot prevent cell-cell fusion”. For the same compound, the “antiviral activity on HCV (enveloped)” value (hepatitis C virus) was “clear antiviral effect”, the “virus attachment (bound HCoV-229E RNA levels)” value (HCoV-229E [11]) was “only a slight and nonsignificant decrease in RNA levels” and the “selectivity index, SARS-CoV-2” value (SARS-CoV-2 [12]) was 32. For the same compound, the IC50 (SARS-CoV-2 [12]; Severe acute respiratory syndrome coronavirus 2, Vero C1008, read-out: IC50, SARS-CoV-2 infectious titers) was 180 nM, the “antiviral activity on CVB4 (nonenveloped)” value (coxsackievirus (CVB4)) was “not active” and the “infection under trypsin-mediated fusion conditions” value (HCoV-229E [13]) was “strongly inhibited infection levels”. For the same compound, the “selectivity index, MERS-CoV” value (MERS-CoV [14]) was 24, the IC50 (MERS-CoV [14]; Middle East respiratory syndrome-related coronavirus, Huh-7, read-out: IC50, MERS-CoV infectious titers) was 180 nM and the “activity against HCoV-229E-Luc, extracts and fractions” value (HCoV-229E [15]; Huh-7 cells, 25 μg/ml, 7 h postinoculation) was “the most active”. The “antiviral activity in the dark” value (HCoV-229E [15]; Huh-7 cells, dark, 10 μM) was “antiviral activity was observed”, the “antiviral activity in presence or absence of TMPRSS2” value (HCoV-229E [15]; Huh-7 versus Huh-7-TMPRSS2 cells) was “No difference in antiviral activity” and the IC50 (HCoV-229E [15]; Huh-7) was 540 nM. The IC50 (HCoV-229E [15]; Huh-7, 7 h, read-out: 50% inhibitory concentration (IC50) against HCoV-229E-Luc) was 510 nM, the “antiviral activity after pretreatment of virus versus no pretreatment” value (HCoV-229E [15]; virus preincubated 30 min with 2 μM, diluted to 0.2 μM for inoculation, compared with 0.2 μM directly, Huh-7 cells) was “much stronger” and the “antiviral effect at inactive concentration with long light exposure” value (HCoV-229E [16]; 0.02 μM, 80 min light exposure) was “no antiviral effect”. For the same compound, the “inhibitory effect with longer light exposure times” value (HCoV-229E [16]; 0.02, 0.2, 2 μM, light 5 to 80 min) was “increased inhibitory effect”.
